Measured values from BindingDB's records for doi:10.1074/jbc.M600168200 (Duke University Medical Center, 2006).

Key:
[1] = target: Geranylgeranyl transferase type-1 subunit beta [A2V]/Protein farnesyltransferase/geranylgeranyltransferase type-1 subunit alpha (Homo sapiens, UniProt P49354+P53609, A2V); assay: In Vitro FTase/GGTase-1 Inhibition Assay; settings: pH 7.7; 30 °C
Protocol: (§1) Compounds were tested as inhibitors of FTase or GGTase-1 in vitro using purified recombinant mammalian enzymes to catalyze the reactions between [3H] FPP or [3H]GGPP, and recombinant protein substrates. Incorporation of radiolabeled isoprenoid into Ras protein substrate was quantitated by precipitation of total protein with acid and scintillation counting. The inhibitory activity of the compounds is reported as an IC50 value, the concentration of inhibitor required to reduce radiolabel incorporation by 50% compared with an uninhibited control experiment.

[2] = target: Protein farnesyltransferase subunit beta/geranylgeranyltransferase type-1 subunit alpha (Homo sapiens, UniProt P49354+P49356); assay: In Vitro FTase/GGTase-1 Inhibition Assay; settings: pH 7.7; 30 °C
Protocol: as §1

Geranylgeranyl transferase type-1 subunit beta [A2V]/Protein farnesyltransferase/geranylgeranyltransferase type-1 subunit alpha, sequence (P53609 whole entry A2V, other chains not shown): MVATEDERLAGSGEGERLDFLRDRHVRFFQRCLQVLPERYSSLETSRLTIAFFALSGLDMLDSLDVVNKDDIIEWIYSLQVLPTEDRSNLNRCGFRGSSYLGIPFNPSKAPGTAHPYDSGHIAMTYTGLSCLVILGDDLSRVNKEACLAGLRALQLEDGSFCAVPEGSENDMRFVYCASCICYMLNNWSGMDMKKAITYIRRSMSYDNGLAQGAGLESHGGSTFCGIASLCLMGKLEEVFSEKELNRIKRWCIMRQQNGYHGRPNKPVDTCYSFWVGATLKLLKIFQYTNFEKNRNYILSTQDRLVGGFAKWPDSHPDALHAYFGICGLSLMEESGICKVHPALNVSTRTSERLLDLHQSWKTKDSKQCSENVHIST

- IC50 [1]: 8.24 nM
- IC50 [2]: > 2000 nM
Structure (SMILES): CSCCc1c(-c2cccnc2)nn(-c2ccc(Cl)c(Cl)c2)c1OCCCC(=O)N[C@@H](Cc1ccccc1)C(N)=O [N-[(S)-1-carbamoyl-2-phenylethyl]-4-[2-(3,4-di-chlorophenyl)-4-(2-methylsulfanylethyl)-5-pyridin-3-yl-2-H-pyrazol-3-yloxy]butyramide]
